This assay addresses Beta-glucuronidase (Escherichia coli (strain K12), UniProt P05804). The experiment in a line: β-Glucuronidase Inhibition Assay. The conditions noted are these: pH 7; 37 °C. The procedure: β-Glucuronidase inhibitory activity was evaluated by a biochemical assay, based on the measurement of the absorbance of p-nitrophenol at 405 nm, produced from the enzymatic hydrolysis of chromogenic substrate [Choudhary et al., Steroids, 74:1040-1044; Khan et al., Chem. Pharm. Bull., 50:1443-1446]. The reaction mixture, consisting of 5 μL of test compound solution, 185 μL of 0.1 M acetate buffer (pH 7.0) and 10 μL β-glucuronidase solution, was kept for 30 min at 37°C. The total reaction volume being 250 μL. 50 μL of p-nitrophenyl-β-D-glucuronide was added to each plate. A multiplate reader was used to read the absorbance at 405 nm.
Sequence of Beta-glucuronidase (P05804 whole entry): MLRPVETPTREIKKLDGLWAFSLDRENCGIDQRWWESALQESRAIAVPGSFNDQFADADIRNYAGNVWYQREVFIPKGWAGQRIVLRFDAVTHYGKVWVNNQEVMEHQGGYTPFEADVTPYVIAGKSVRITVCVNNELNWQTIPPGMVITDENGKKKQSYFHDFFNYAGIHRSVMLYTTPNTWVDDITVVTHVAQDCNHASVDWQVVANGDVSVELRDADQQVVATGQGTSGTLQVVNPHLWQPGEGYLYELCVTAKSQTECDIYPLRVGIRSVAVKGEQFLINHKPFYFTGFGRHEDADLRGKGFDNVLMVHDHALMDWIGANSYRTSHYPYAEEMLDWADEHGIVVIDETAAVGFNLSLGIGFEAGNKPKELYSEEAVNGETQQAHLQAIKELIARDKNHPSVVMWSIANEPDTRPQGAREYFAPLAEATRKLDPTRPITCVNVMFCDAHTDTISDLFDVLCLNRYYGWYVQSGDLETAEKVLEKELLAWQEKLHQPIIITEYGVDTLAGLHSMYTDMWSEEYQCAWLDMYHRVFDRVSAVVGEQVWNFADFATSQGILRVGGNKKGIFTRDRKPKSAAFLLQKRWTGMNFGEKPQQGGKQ
`C[C@]12CCC(=O)CC1CC[C@@H]1[C@@H]2CC[C@]2(C)C(=O)CC[C@@H]12` (some centres undefined) [Androstane-3,17-dione (2)] showed an IC50 of 374 µM. In the case of `C[C@]12CC[C@H]3[C@@H]([C@@H](O)CC4=C[C@@H](O)CC[C@@]43C)[C@@H]1CC[C@@H]2O` [Androst-4-ene-3β,7β,17β-triol (8)] it was 191 µM. With `C[C@]12CC[C@H](O)C=C1C(=O)C[C@@H]1[C@@H]2CC[C@]2(C)C(=O)CC[C@@H]12` [Androst-4-ene-3β-ol-6,17-dione (7)], the IC50 is 222 µM. In the case of `C[C@]12CCC(=O)C=C1CC[C@@H]1[C@@H]2CC[C@]2(C)C(=O)CC[C@@H]12` [Androst-4-en-3,17-dione, 2] it was 430 µM.

The record behind these values is BindingDB's records for doi:10.3109/14756366.2011.590804 (University of Karachi, 2012).
